The values below come from publication PMC6213047, “Design of Antibacterial Agents: Alkyl Dihydroxybenzoates against Xanthomonas citri subsp. citri” (International Journal of Molecular Sciences, 2018).

“Also recorded” adds a separate entry of the source.

In one assay the test system is MRC-5 (human lung fibroblast cell line). The assay is described as follows: Cytotoxicity MTT assay, MRC-5. It counts as cell-based. As to conditions: Homo sapiens, MRC5, 24 h, read-out: IC50 MRC-5, MTT, 24 h treatment. The protocol: This test is based on the reduction of 3-(4,5-dimethyl-2-thiazolyl)-2,5-diphenyl-2-tetrazole bromide by viable cells, with formation of violet insoluble formazan crystals. Five cell lines were used in order to evaluate the cytotoxic effect of the compounds as a whole.
The cytotoxicity of compounds 4, 16, 28 and copper oxychloride was determined by MTT assay. The cell lines used were HaCaT (human keratinocyte cell line—CLS 300493), Huh-7.5 (human hepatoma cell line—ATCC® PTA-8561), MRC-5 (human lung fibroblast cell line—ATCC CCL-171), VERO (monkey kidney epithelial cell line—ATCC® CCL81) and ACHN (human renal adenocarcinoma cell line—ATCC® CRL1611). The cells were cultured in appropriate medium recommended by the American Type Culture Collection.
The assay was performed with the concentration of 10^4 cells for both cell lines, distributed in 96-well plates and incubated at 37 °C in a 5% CO2 controlled atmosphere oven for 24 h. After the incubation period, the cells were treated with the compounds with a range of 1.56–200 μmol L^−1 and incubated for 24 h. The supernatant was removed, then 100 μL of 3-(4,5-dimethyl-2-thiazolyl)-2,5-diphenyl-2H-tetrazolium (MTT) salt at 1 mg mL^−1 diluted in DMEM medium (Gibco Life Technologies, Gaithersburg, MD, USA) was added and incubated for 30 min. Subsequently, the MTT was removed, then 100 μL of DMSO under agitation for 5 min at 60 rpm was added. The plates were read at 570 nm in a FLUOstar Omega/BMG LABTECH plate reader, Offenburg, BW, DE. We carried out the experiments in triplicate and three independent events for statistical analysis (GraphPad Software, San Diego, CA, USA). The MTT assay is based on the tetrazolium salt (yellow-colored) reduction to formazan (purple-colored) by metabolically active cells.
For orientation: Formazan colour is commonly taken as a measure of viable cells.
A word on the IC50: it is the point on the concentration scale where inhibition reaches its midpoint. Regarding `CCCCCCCOC(=O)c1ccc(O)cc1O` [Compound 4], the IC50 was more than 100 µM.

Take `CCCCCCCOC(=O)c1cc(O)ccc1O` [Compound 16]: the IC50 was more than 100 µM.

Take `CCCCCCCOC(=O)c1ccc(O)c(O)c1` [Compound 28]: the IC50 was more than 100 µM.

Still in this assay, the particulars now being: MTT, 24 h treatment; read-out: IC50 MRC-5.
For `CCCCCCCOC(=O)c1ccc(O)cc1O` [Compound 4], the IC50 was 127 ± 4.59 µM.

`CCCCCCCOC(=O)c1cc(O)ccc1O` [Compound 16]: the IC50 was found to be 145 ± 6.29 µM.

`CCCCCCCOC(=O)c1ccc(O)c(O)c1` [Compound 28]: the IC50 came out at 129 ± 2.12 µM.

In another assay the test system is Xanthomonas citri subsp. citri. Briefly: Growth curve of Xcc (OD 600 nm). As to conditions: MIC and ½ MIC, 72 h. It counts as cell-based. The protocol:
According to the growth curves of the positive control (PC) and vehicle control (DMSO), it was observed that Xcc reaches the maximum growth phase in a period of 15 h. […] The early growth inhibition (lag phase), which happens in the first hours of contact (period of the first cellular divisions) can be a dynamic process. […] This can be explained because the compounds have bacteriostatic action; that is, as the time passes, the cells become able to recover and restart doubling. Another important finding is that the lag phase consists in the cell adaptation to the new medium conditions and the bacterial population is smaller in relation to the exponential phase facilitates the action of the compounds in the first hours (Figure 1).
An isolated colony of Xanthomonas citri subsp. citri was inoculated in NYG medium for 12 h at 29 °C. After this, the optical density (OD 600 nm) was measured and adjusted to ~0.1. […] Optical density reading was measured on a Synergy H1-BioTek plate reader every 30 min for 72 h. The growth curves were plotted with GraphPad Prism software. At the same time, the degradation assay was performed, solubilizing the compounds in DMSO, which were later incorporated in NYG medium. Later, we scanned the compounds to measure the absorbance values from 210 to 700 nm, and the maximum lambda value of each compound was selected after scanning. After that, punctual readings were carried out every 30 min for 72 h.
In the case of `CCCCCCCOC(=O)c1ccc(O)cc1O` [Compound 4], the “effect on Xcc growth curve” value is “delay in the exponential phase”.

As to `CCCCCCCOC(=O)c1cc(O)ccc1O` [Compound 16], the “effect on Xcc growth curve” value is reported as “delay in the exponential phase”.

Take `CCCCCCCOC(=O)c1ccc(O)c(O)c1` [Compound 28]: the “effect on Xcc growth curve” value is “delay in the exponential phase”.

The next assay has as its system Xcc cells membrane integrity. The assay is described as follows: Cellular membrane permeability of Xcc, Live/Dead BacLight kit. It counts as cell-based, Xanthomonas citri subsp. citri. To be noted: compounds at ¼ MIC, 15 min; nisin as positive control. The protocol:
Membrane integrity was measured by using the commercial assay Live/Dead BacLight® bacterial viability kit (Invitrogen, Carlsbad, CA, USA). We observed cells with intact membrane in fluorescent blue (SYTO 9) and cells with disturbance or affected membrane integrity in red or pink (propidium iodide). The data analyses were plotted as the percentage of cells permeated by propidium iodide (Figure 2).
Phase contrast microscopy was used to observe changes in cell shape and signs of cell division alteration using an objective lens with a magnification of 100×. To evaluate the Xcc cells’ membrane integrity, the BacLight® kit was used. Mixtures of SYTO 9 dyes and propidium iodide (PI). SYTO 9 (blue) can stain nucleic acids in general—with intact or damaged membranes. On the other hand, PI (red) penetrates only the bacteria with damaged membranes, causing overlap in the fluorescence of SYTO 9. Therefore, using a mixture of the dyes, the bacteria with disturbed cell membranes are stained in fluorescent red and the intact cell membranes are stained in fluorescent blue. […] Cellular immobilization was performed on slides containing 1% agarose gel in 0.85% saline buffer. The slides were prepared with 1.0 mL of the agarose solution, which was dispersed in optical microscopy slides and on each slide another slide was placed so that the gel continued like a thin film and was of homogeneous height. The slides were dried at room temperature for approximately 20 min and opened at the time of use, when 10 μL of the cell suspension was deposited in the center and covered with the cover slip. The cells were visualized using the Olympus BX-61 optical microscope equipped with OrcaFlash 2.8 monochrome camera (Hamamatsu, Shizuoka, Japan). Cell Sensation software v11 (Olympus) was used to document and analyze the images.
For `CCCCCCCOC(=O)c1ccc(O)cc1O` [Compound 4], the “percentage of cells permeated by propidium iodide” value (from here on “percentage of cells permeated”) stood at 13.9%.

On to `CCCCCCCOC(=O)c1cc(O)ccc1O` [Compound 16], for which the “percentage of cells permeated” value was found to be 41.3%.

Take `CCCCCCCOC(=O)c1ccc(O)c(O)c1` [Compound 28]: the “percentage of cells permeated” value is listed as 93.8%.

A further assay deals with FtsZ from Xcc. The assay is described as follows: Inhibition of GTPase activity, continuous substrate regeneration assay. To be noted: compounds at MIC values, Xcc-FtsZ 5 μM, 400 μM GTP. It counts as biochemical, Xanthomonas citri subsp. citri. The protocol: The cell division process is mediated by the formation of the Z ring, coordinated by GTP hydrolysis activity of FtsZ [33, 34, 35].
The evaluation of the inhibition of GTPase activity was measured by the characterization of the FtsZ from Xcc. This methodology is known as continuous assay of substrate regeneration and consists of the hydrolysis of guanosine triphosphate (GTP) in guanosine diphosphate (GDP) and inorganic phosphate. The GTP is regenerated by the enzyme pyruvate kinase which, in turn, converts the phosphoenol pyruvate (PEP) to pyruvate. The pyruvate produced by this reaction is reduced to lactate by lactate dehydrogenase, using NADH [64].
Reagent stocks were dispersed in Tris 50 buffer (1:1 tris:KCl at pH 7.9). We also prepared two mixtures: Mixture 1—magnesium chloride (MgCl2), pyruvate kinase/lactate dehydrogenase, phosphoenol-pyruvate, NADH and GTP, adding or not the test compounds to MIC values; and mixture 2—Xcc-FtsZ. The assay was performed in a 96-well plate, 75 μL of mixture 1 was pipetted into a well and incubated for 5 min at 30 °C; then 75 μL of mixture 2 was added and the readings started. A Biotek Synergy MX plate reader was used. The readings were performed every 5 s, at the wavelength of 340 nm at 30 °C, under constant stirring.
The total volume of 150 μL presented the following concentrations: 5 mM MgCl2; pyruvate kinase/lactate dehydrogenase 20 U mL^−1; 2 mM phosphoenol-pyruvate; 1 mM NADH; 400 μM GTP; Xcc-FtsZ 5 μM.
For `CCCCCCCOC(=O)c1ccc(O)cc1O` [Compound 4], the “effect on GTPase activity of FtsZ” value is on record as “inhibition of FtsZ GTPase activity; also recorded: decay in the GTPase activity of FtsZ”.

For the compound `CCCCCCCOC(=O)c1cc(O)ccc1O` [Compound 16], the “effect on GTPase activity of FtsZ” value is listed as “inhibition of FtsZ GTPase activity; also recorded: decay in the GTPase activity of FtsZ”.

Turning to `CCCCCCCOC(=O)c1ccc(O)c(O)c1` [Compound 28], the “effect on GTPase activity of FtsZ” value is given as “inhibition of FtsZ GTPase activity; also recorded: decay in the GTPase activity of FtsZ”.
